Test results published in ChEMBL document CHEMBL3872244, “Synthesis, evaluation and molecular modelling studies of 2-(carbazol-3-yl)-2-oxoacetamide analogues as a new class of potential pancreatic lipase inhibitors” (Bioorg Med Chem, 2017).
Values belong to the molecule of their own block, whether it stands above or below them. The source made the active and inactive calls. The calls are words filed in the database; no cut-off is given here.

Key:
[1] = molecular target: T1, Pancreatic triacylglycerol lipase (Sus scrofa, UniProt P00591); experiment: Inhibition of porcine pancreatic lipase assessed as reduction in 4-nitrophenol formation from 4-nitrophenyl butyrate substrate preincubated for 30 mins followed by substrate addition measured after 5 mins by spectrophotometer
T1 sequence (P00591 whole entry): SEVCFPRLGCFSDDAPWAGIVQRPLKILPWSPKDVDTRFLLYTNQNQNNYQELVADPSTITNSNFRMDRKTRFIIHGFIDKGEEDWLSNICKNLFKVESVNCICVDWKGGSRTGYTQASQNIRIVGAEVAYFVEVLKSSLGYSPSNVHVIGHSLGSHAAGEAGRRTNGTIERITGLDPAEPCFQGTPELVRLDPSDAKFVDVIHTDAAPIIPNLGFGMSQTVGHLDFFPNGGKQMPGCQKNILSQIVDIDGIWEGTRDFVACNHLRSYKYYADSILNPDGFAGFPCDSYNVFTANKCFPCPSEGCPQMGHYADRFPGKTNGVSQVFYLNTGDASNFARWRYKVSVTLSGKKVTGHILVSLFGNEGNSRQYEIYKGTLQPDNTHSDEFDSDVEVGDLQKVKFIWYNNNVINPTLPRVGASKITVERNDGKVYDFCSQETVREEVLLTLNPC

[2] = molecular target: T2, Pancreatic triacylglycerol lipase (Sus scrofa) (UniProt P00591); experiment: Inhibition of porcine pancreatic lipase using tributyrin as substrate incubated for 30 mins measured at 1 min time interval for 5 mins in presence of NaTDC in incubation medium by pH-Stat method
T2 sequence (whole entry): T1 sequence (P00591 whole entry)

[3] = molecular target: T2, Pancreatic triacylglycerol lipase (Sus scrofa); experiment: Inhibition of porcine pancreatic lipase using tributyrin as substrate preincubated for 30 mins measured at 1 min time interval for 5 mins in presence of NaTDC in reaction mixture by pH-Stat method
[4] = molecular target: T1, Pancreatic triacylglycerol lipase; experiment: Competitive inhibition of porcine pancreatic lipase 4-nitrophenyl butyrate substrate preincubated for 30 mins followed by substrate addition measured after 5 mins by Dixon plot method
[5] = molecular target: T3, Pancreatic triacylglycerol lipase (Homo sapiens, UniProt P16233); experiment: Inhibition of pancreatic lipase (unknown origin)
T3 sequence (P16233 whole entry): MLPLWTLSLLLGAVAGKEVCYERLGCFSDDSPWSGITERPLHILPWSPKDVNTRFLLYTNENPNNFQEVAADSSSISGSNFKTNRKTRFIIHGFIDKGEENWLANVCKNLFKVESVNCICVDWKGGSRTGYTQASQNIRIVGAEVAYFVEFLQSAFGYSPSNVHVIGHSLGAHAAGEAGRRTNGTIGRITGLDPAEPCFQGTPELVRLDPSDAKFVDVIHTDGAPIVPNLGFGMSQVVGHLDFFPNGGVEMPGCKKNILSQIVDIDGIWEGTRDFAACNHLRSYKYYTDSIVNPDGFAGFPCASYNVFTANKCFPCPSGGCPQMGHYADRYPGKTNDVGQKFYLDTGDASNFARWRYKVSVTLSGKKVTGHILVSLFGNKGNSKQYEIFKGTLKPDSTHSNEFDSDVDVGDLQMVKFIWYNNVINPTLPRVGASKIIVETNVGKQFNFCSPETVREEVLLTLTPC

[6] = compound: COc1ccc(NC(=O)C(=O)c2ccc3c(c2)c2ccccc2n3Cc2ccc(Cl)cc2)cc1OC; experiment: (§1) Competitive inhibition of porcine pancreatic lipase assessed as enzyme Km at 10 uM in presence of varying levels of 4-nitophenyl butyrate by Lineweaver-burk plot method; conditions: Sus scrofa
[7] = compound: COc1cc(NC(=O)C(=O)c2ccc3[nH]c4ccccc4c3c2)cc(OC)c1OC; experiment: as §1; conditions: Sus scrofa
[8] = compound: CCCCCCCCCCC[C@@H](C[C@@H]1OC(=O)[C@H]1CCCCCC)OC(=O)[C@H](CC(C)C)NC=O; experiment: as §1; conditions: Sus scrofa
[9] = compound: COc1cc(NC(=O)C(=O)c2ccc3c(c2)c2ccccc2n3Cc2ccc(Cl)cc2)cc(OC)c1OC; experiment: as §1; conditions: Sus scrofa
[10] = compound: COc1ccc(NC(=O)C(=O)c2ccc3c(c2)c2ccccc2n3Cc2ccc(Cl)cc2)cc1OC; experiment: (§2) Competitive inhibition of porcine pancreatic lipase assessed as enzyme Km at 5 uM in presence of varying levels of 4-nitophenyl butyrate by Lineweaver-burk plot method; conditions: Sus scrofa
[11] = compound: COc1cc(NC(=O)C(=O)c2ccc3[nH]c4ccccc4c3c2)cc(OC)c1OC; experiment: as §2; conditions: Sus scrofa
[12] = compound: CCCCCCCCCCC[C@@H](C[C@@H]1OC(=O)[C@H]1CCCCCC)OC(=O)[C@H](CC(C)C)NC=O; experiment: as §2; conditions: Sus scrofa
[13] = compound: COc1cc(NC(=O)C(=O)c2ccc3c(c2)c2ccccc2n3Cc2ccc(Cl)cc2)cc(OC)c1OC; experiment: as §2; conditions: Sus scrofa
[14] = compound: COc1ccc(NC(=O)C(=O)c2ccc3c(c2)c2ccccc2n3Cc2ccc(Cl)cc2)cc1OC; experiment: (§3) Competitive inhibition of porcine pancreatic lipase assessed as enzyme Vmax in presence of varying levels of 4-nitophenyl butyrate by Lineweaver-burk plot method; conditions: Sus scrofa
[15] = compound: COc1cc(NC(=O)C(=O)c2ccc3[nH]c4ccccc4c3c2)cc(OC)c1OC; experiment: as §3; conditions: Sus scrofa
[16] = compound: CCCCCCCCCCC[C@@H](C[C@@H]1OC(=O)[C@H]1CCCCCC)OC(=O)[C@H](CC(C)C)NC=O; experiment: as §3; conditions: Sus scrofa
[17] = compound: COc1cc(NC(=O)C(=O)c2ccc3c(c2)c2ccccc2n3Cc2ccc(Cl)cc2)cc(OC)c1OC; experiment: as §3; conditions: Sus scrofa
[18] = compound: COc1ccc(NC(=O)C(=O)c2ccc3c(c2)c2ccccc2n3Cc2ccc(Cl)cc2)cc1OC; experiment: (§4) Competitive inhibition of porcine pancreatic lipase assessed as enzyme Km at 20 uM in presence of varying levels of 4-nitophenyl butyrate by Lineweaver-burk plot method; conditions: Sus scrofa
[19] = compound: COc1cc(NC(=O)C(=O)c2ccc3[nH]c4ccccc4c3c2)cc(OC)c1OC; experiment: as §4; conditions: Sus scrofa
[20] = compound: CCCCCCCCCCC[C@@H](C[C@@H]1OC(=O)[C@H]1CCCCCC)OC(=O)[C@H](CC(C)C)NC=O; experiment: as §4; conditions: Sus scrofa
[21] = compound: COc1cc(NC(=O)C(=O)c2ccc3c(c2)c2ccccc2n3Cc2ccc(Cl)cc2)cc(OC)c1OC; experiment: as §4; conditions: Sus scrofa

Molecule: CCn1c2ccccc2c2cc(C(=O)C(=O)Nc3cc(OC)c(OC)c(OC)c3)ccc21
IC50 [1]: 11.4 µM

Molecule: O=C(Nc1ccc2ncccc2c1)C(=O)c1ccc2c(c1)c1ccccc1n2Cc1ccc(Cl)cc1
IC50 [1]: 23 µM

Molecule: COc1ccc(NC(=O)C(=O)c2ccc3c(c2)c2ccccc2n3Cc2ccc(Cl)cc2)cc1
IC50 [1]: 14.8 µM

Molecule: O=C(Nc1ccncc1)C(=O)c1ccc2[nH]c3ccccc3c2c1
IC50 [1]: 29.4 µM

Molecule: COc1ccc(NC(=O)C(=O)c2ccc3c(c2)c2ccccc2n3Cc2ccc(Cl)cc2)cc1OC
inhibition [2]: Active | IC50 [1]: 6.31 µM | XI50 [3]: 21.9 | Ki [4]: 17.5 µM

Molecule: COc1cc(NC(=O)C(=O)c2ccc3[nH]c4ccccc4c3c2)cc(OC)c1OC
inhibition [2]: Active | IC50 [1]: 9.58 µM | XI50 [3]: 26.2 | Ki [4]: 21.6 µM

Molecule: CN(C)c1ccc(NC(=O)C(=O)c2ccc3c(c2)c2ccccc2n3Cc2ccc(Cl)cc2)cc1
IC50 [1]: 14.8 µM

Molecule: CCCCCCCCCCC[C@@H](C[C@@H]1OC(=O)[C@H]1CCCCCC)OC(=O)[C@H](CC(C)C)NC=O
XI50 [3]: 3.14

Molecule: O=C(Nc1ccccc1)C(=O)c1ccc2c(c1)c1ccccc1n2Cc1ccc(Cl)cc1
IC50 [1]: 13.9 µM

Molecule: CCn1c2ccccc2c2cc(C(=O)C(=O)Nc3ccc(OC)c(OC)c3)ccc21
IC50 [1]: 16.4 µM

Molecule: CCn1c2ccccc2c2cc(C(=O)C(=O)Nc3ccccc3)ccc21
IC50 [1]: 24.2 µM

Molecule: O=C(Nc1ccncc1)C(=O)c1ccc2c(c1)c1ccccc1n2Cc1ccc(Cl)cc1
IC50 [1]: 19.9 µM

Molecule: COc1ccc2[nH]c3c4c(c(C)cc3c2c1)OC(C)(C)C=C4 [KOENIMBINE]
IC50 [5]: 169 µM

Molecule: CC(C)=CCCC1(C)C=Cc2c(c(C)cc3c2[nH]c2ccccc23)O1 (stereo not drawn) [MAHANIMBINE]
IC50 [5]: 17.9 µM

Molecule: COc1ccc(NC(=O)C(=O)c2ccc3[nH]c4ccccc4c3c2)cc1
IC50 [1]: 19.3 µM

Molecule: Cc1ccc(NC(=O)C(=O)c2ccc3c(c2)c2ccccc2n3Cc2ccc(Cl)cc2)cc1
IC50 [1]: 13.5 µM

Molecule: Cc1cnc(NC(=O)C(=O)c2ccc3c(c2)c2ccccc2n3Cc2ccc(Cl)cc2)s1
IC50 [1]: 32.8 µM

Molecule: COc1cc2[nH]c3c4c(c(C)cc3c2cc1OC)OC(C)(C)C=C4
IC50 [5]: 429 µM

Molecule: Cn1c2ccccc2c2cc(C(=O)C(=O)Nc3ccccc3)ccc21
IC50 [1]: 36.2 µM

B1: Pancreatic triacylglycerol lipase (Sus scrofa), P00591 (protein)
chain: T1 sequence (P00591 whole entry)
Km [6]: 156 µM | Km [7]: 151 µM | Km [8]: 228 µM | Km [9]: 152 µM | Km [10]: 129 µM | Km [11]: 123 µM | Km [12]: 197 µM | Km [13]: 126 µM | Vmax [14]: 15.2 µM/min | Vmax [15]: 15 µM/min | Vmax [16]: 15.2 µM/min | Vmax [17]: 15.5 µM/min | Km [18]: 179 µM | Km [19]: 163 µM | Km [20]: 253 µM | Km [21]: 165 µM

Results, then the molecule that gave them:

IC50 [1]: 44.1 µM
Molecule: COc1ccc(NC(=O)C(=O)c2ccc3[nH]c4ccccc4c3c2)cc1OC

inhibition [2]: Active | IC50 [1]: 8.72 µM | XI50 [3]: 21.9 | Ki [4]: 19.6 µM
Molecule: COc1cc(NC(=O)C(=O)c2ccc3c(c2)c2ccccc2n3Cc2ccc(Cl)cc2)cc(OC)c1OC

IC50 [1]: 28 µM
Molecule: O=C(Nc1ccc(F)cc1)C(=O)c1ccc2c(c1)c1ccccc1n2Cc1ccc(Cl)cc1

IC50 [1]: 56.2 µM
Molecule: CCn1c2ccccc2c2cc(C(=O)C(=O)Nc3ccc(N(C)C)cc3)ccc21

IC50 [1]: 15.5 µM
Molecule: CCn1c2ccccc2c2cc(C(=O)C(=O)Nc3ccc4ncccc4c3)ccc21

IC50 [1]: 29.7 µM
Molecule: O=C(Nc1ccccc1)C(=O)c1ccc2[nH]c3ccccc3c2c1

IC50 [1]: 33 µM
Molecule: COc1cccc(NC(=O)C(=O)c2ccc3[nH]c4ccccc4c3c2)c1

IC50 [1]: 26.6 µM
Molecule: COc1cccc(NC(=O)C(=O)c2ccc3c(c2)c2ccccc2n3Cc2ccc(Cl)cc2)c1

IC50 [1]: 23.1 µM
Molecule: COc1cc(NC(=O)C(=O)c2ccc3c(c2)c2ccccc2n3C)cc(OC)c1OC
